Assay results reported in patent publication US9902709B2, “Polysubstituted pyridine compound, preparation method, use and pharmaceutical composition” (PEKING UNIVERSITY FOUNDER GROUP CO., LTD., priority 2014, dated 2018).
pIC50: −log10 of the molar value.

Legend:
[1] = tested on: MDA-MB-231 human mammary cancer cell strain; test: In vitro anti-proliferation of tumor cells (CCK-8), MDA-MB-231; format: cell-based
Method: (§1) Experimental Example 2: Determination of the Compounds According to the Present Invention for IC50 of the In Vitro Anti-Proliferation of Tumor Cells
MDA-MB-231 human mammary cancer cell strain (purchased from Shanghai Institute of Cell Biology, Chinese Academy of Sciences);
(§2) Preparation of a compound: the compound was diluted with DMSO to a final concentration of 10 mM.
(§3) a) Cells in logarithmic growth phase were collected, counted, and re-suspended in complete medium. The concentration of cells was adjusted to a suitable concentration (determined depending on the result of optimization experiment of cell density), and the cells were seeded to a 96-well plate at 100 μl cell suspension per well. The cells were incubated in an incubator at 37° C., 100% relative humidity, 5% CO2 for 24 hours.
(§4) b) A test compound was diluted with the culture medium to 500 μM, and then gradient dilution was performed for 8 times. Cells were added at 25 μl/well. The final concentrations of the compound was in a range from 100 μM and 0 μM, 4-fold diluted, including 10 concentrations.
(§5) c) The cells were incubated in an incubator at 37° C., 100% relative humidity, 5% CO2 for 72 hours.
(§6) d) The culture medium was withdraw and discarded, the complete medium containing 10% CCK-8 was added, and then the cells were incubated in an incubator at 37° C. for 2-4 hours.
(§7) IC50 curve was fitted and IC50 value was calculated by professional software GraphPad Prism 5.0.
(§8) In the experiment, the compounds according to the present invention were determined for their IC50 values of in vitro anti-proliferation of tumor cell strains. The final concentrations of the compounds was in a range from 100 μM and 0 μM, 4-fold diluted, including 10 concentrations.

[2] = tested on: HepG2 human liver cancer cell strain; test: In vitro anti-proliferation of tumor cells (CCK-8), HepG2; format: cell-based; details: HepG2, 72 hours
Method: as §1
HepG2 human liver cancer cell strain (purchased from Shanghai Institute of Cell Biology, Chinese Academy of Sciences);
as §2, §3, §4, §5, §6, §7, §8

[3] = tested on: SK-OV-3 human ovarian cancer cell strain; test: In vitro anti-proliferation of tumor cells (CCK-8), SK-OV-3; format: cell-based; details: SK-OV-3, 72 hours
Method: as §1
SK-OV-3 human ovarian cancer cell strain (purchased from Shanghai Institute of Cell Biology, Chinese Academy of Sciences);
as §2, §3, §4, §5, §6, §7, §8

Pharmacokinetics in mice = format: in vivo; details: female, plasma, CD-1 mouse
Method: Administration route: intravenous injection (IV); per os (PO).
Fasting condition: free access to water, no fasting.
The mice were weighed before administration, and the administration volume was calculated based on their body weights (IV group: 4 mL/kg; PO group: 10 mL/kg).
Administration route and dose: Intravenous (IV) group: 1 mg/kg; Oral (PO) group: 5 mg/kg.
Animal grouping: 3 mice/group, an IV group and a PO group for each test compound.
After administration, 30 μL whole blood was collected from rim of the eyes of mice in the IV group at each pre-determined time point (5 min, 15 min, 30 min, 1 h, 2 h, 4 h, 8 h, 24 h), and 30 μL whole blood was collected from rim of the eyes of mice in the PO group at each pre-determined time point (15 min, 30 min, 1 h, 2 h, 4 h, 8 h, 24 h). The whole blood was centrifuged (6,000 rpm, 5 min) to get blood plasma. All the blood plasma samples were stored in a refrigerator of −80° C. for further analysis.
Conditions of LC/MS/MS was as follows:
Pharmacokinetic parameters were estimated according to non-compartment model (calculated by WinNonlin software): […]
IV paramater: t1/2 (hr); C0 (ng/mL); AUClast (hr*ng/mL); AUCInf (hr*ng/mL); AUC Extr (%); Vz (L/kg); Vss (L/kg); CL (mL/min/kg); MRT (hr).
PO parameter: t1/2 (hr); tmax (hr); Cmax (ng/mL); AUClast (hr*ng/mL); AUCInf (hr*ng/mL); AUC Extr (%); MRT (hr); AUC/D (hr*mg/mL); F (%).

[4] = tested on: MiaPaCa-2 human pancreatic cancer cell strain; test: In vitro anti-proliferation of tumor cells (CCK-8), MiaPaCa-2; format: cell-based; details: MIA PaCa-2, MiaPaCa-2, 72 hours
Method: as §1
MiaPaCa-2 human pancreatic cancer cell strain (purchased from American ATCC);
as §2, §3, §4, §5, §6, §7, §8

[5] = tested on: 786-O human renal clear cell carcinoma cell strain; test: In vitro anti-proliferation of tumor cells (CCK-8), 786-O; format: cell-based; details: 786-0, 72 hours
Method: as §1
786-O human renal clear cell carcinoma cell strain (purchased from Shanghai Institute of Cell Biology, Chinese Academy of Sciences);
as §2, §3, §4, §5, §6, §7, §8

[6] = tested on: A498 human renal carcinoma cell strain; test: In vitro anti-proliferation of tumor cells (CCK-8), A498; format: cell-based; details: A498, 72 hours
Method: as §1
A498 human renal carcinoma cell strain (purchased from Shanghai Institute of Cell Biology, Chinese Academy of Sciences);
as §2, §3, §4, §5, §6, §7, §8

[7] = tested on: NCI-H460 Human large cell lung cancer cell strain; test: In vitro anti-proliferation of tumor cells (CCK-8), NCI-H460; format: cell-based; details: NCI-H460, 72 hours
Method: as §1
NCI-H460 Human large cell lung cancer cell strain (purchased from Shanghai Institute of Cell Biology, Chinese Academy of Sciences);
as §2, §3, §4, §5, §6, §7, §8

VEGFR2 = VEGFR2 (Homo sapiens (Human), UniProt P35968); test: Inhibitory activity of VEGFR2 kinase (HTRF KinEASE-TK kit); format: biochemical
Method: HTRF®KinEASE™-TK kit (Cat.62TKOPEC, Cisbio);
VEGFR2 (Cat: k2643, Sigma);
2.1 Preparation of VEGFR2 Kinase Reagent
1× kinase buffer: 1 mL 1× kinase buffer contained 200 μL 5× kinase buffer (Invitrogen), 5 μL, 1M MgCl2, 1 μL 1M DTT, 1 μL 1M MnCl2, and 793 μL ddH2O;
5×TK substrate-biotin and ATP working fluid: as the concentrations of TK substrate-biotin and ATP, please refer to Table 1. TK substrate-biotin and ATP were diluted with 1× kinase buffer to 5 folds of the reaction concentrations;
5× kinase working fluid: as the concentration of VEGFR2 kinase, please refer to Table 1. 5× kinase working fluid was prepared with 1× Kinase buffer;
4× Sa-XL665 working fluid: as the concentration of Sa-XL665 (Cisbio) in the reaction, please refer to Table 1. The 4× Sa-XL665 working fluid was prepared with assay buffer (Cisbio);
4×TK Ab-cryptate working fluid: TK Ab-Cryptate (Cisbio) was 100-fold diluted with assay buffer (Cisbio), as working fluid;
Experimental Procedure of HTRF KinEASE TK Kit
After all the reagents were prepared as described above, the reagents except for enzymes were equilibrated to room temperature, then adding samples were performed.
TK substrate-biotin, ATP, VEGFR2 kinase and a compound at a certain concentration were reacted in 1× kinase buffer at room temperature for 20 minutes. […] To all the reaction wells, 5 μl 4× Sa-XL665 working fluid and 5 μl 4×TK Ab-cryptate working fluid were added. After reacting at room temperature for 1 hours, fluorescence signal (excited at 320 nm, emitted at 665 nm, 615 nm) was detected by ENVISION detector (Perkinelmer). Based on the full-active well and the background signal well, the inhibition rate for each well was calculated, and the average value was used for duplicate wells. The half maximal inhibitory concentration (IC50) for each test compound was fitted by professional software Graphpad PRISM 5.0.
2.3 Data Analysis Emission light ratio (ER)=665 nm emission signal/615 nm emission signal Inhibition rate=(ERpositive−ERsample)/(ERpositive−ERnegative)*100%
HTRF KinEASE TK kit was used to determine the IC50 value of a compound for kinase VEGFR2. The final concentration of the compound started from 100 μM, and 4-fold gradient dilution was carried out to provide 10 concentrations. Duplicate wells were used for each concentration. The final concentration of DMSO was controlled to 1% in the reaction system.

[8] = tested on: HCT116 human colon cancer cell strain; test: In vitro anti-proliferation of tumor cells (CCK-8), HCT-116; format: cell-based; details: HCT-116, 72 hours
Method: as §1
HCT116 human colon cancer cell strain (purchased from Shanghai Institute of Cell Biology, Chinese Academy of Sciences);
as §2, §3, §4, §5, §6, §7, §8

[9] = tested on: HL-60 human acute myeloid leukemia cell strain; test: In vitro anti-proliferation of tumor cells (CCK-8), HL-60; format: cell-based; details: HL-60, 72 hours
Method: as §1
HL-60 human acute myeloid leukemia cell strain (purchased from Shanghai Institute of Cell Biology, Chinese Academy of Sciences);
as §2, §3, §4, §5, §6, §7, §8

Chain of VEGFR2 (P35968 20-1356): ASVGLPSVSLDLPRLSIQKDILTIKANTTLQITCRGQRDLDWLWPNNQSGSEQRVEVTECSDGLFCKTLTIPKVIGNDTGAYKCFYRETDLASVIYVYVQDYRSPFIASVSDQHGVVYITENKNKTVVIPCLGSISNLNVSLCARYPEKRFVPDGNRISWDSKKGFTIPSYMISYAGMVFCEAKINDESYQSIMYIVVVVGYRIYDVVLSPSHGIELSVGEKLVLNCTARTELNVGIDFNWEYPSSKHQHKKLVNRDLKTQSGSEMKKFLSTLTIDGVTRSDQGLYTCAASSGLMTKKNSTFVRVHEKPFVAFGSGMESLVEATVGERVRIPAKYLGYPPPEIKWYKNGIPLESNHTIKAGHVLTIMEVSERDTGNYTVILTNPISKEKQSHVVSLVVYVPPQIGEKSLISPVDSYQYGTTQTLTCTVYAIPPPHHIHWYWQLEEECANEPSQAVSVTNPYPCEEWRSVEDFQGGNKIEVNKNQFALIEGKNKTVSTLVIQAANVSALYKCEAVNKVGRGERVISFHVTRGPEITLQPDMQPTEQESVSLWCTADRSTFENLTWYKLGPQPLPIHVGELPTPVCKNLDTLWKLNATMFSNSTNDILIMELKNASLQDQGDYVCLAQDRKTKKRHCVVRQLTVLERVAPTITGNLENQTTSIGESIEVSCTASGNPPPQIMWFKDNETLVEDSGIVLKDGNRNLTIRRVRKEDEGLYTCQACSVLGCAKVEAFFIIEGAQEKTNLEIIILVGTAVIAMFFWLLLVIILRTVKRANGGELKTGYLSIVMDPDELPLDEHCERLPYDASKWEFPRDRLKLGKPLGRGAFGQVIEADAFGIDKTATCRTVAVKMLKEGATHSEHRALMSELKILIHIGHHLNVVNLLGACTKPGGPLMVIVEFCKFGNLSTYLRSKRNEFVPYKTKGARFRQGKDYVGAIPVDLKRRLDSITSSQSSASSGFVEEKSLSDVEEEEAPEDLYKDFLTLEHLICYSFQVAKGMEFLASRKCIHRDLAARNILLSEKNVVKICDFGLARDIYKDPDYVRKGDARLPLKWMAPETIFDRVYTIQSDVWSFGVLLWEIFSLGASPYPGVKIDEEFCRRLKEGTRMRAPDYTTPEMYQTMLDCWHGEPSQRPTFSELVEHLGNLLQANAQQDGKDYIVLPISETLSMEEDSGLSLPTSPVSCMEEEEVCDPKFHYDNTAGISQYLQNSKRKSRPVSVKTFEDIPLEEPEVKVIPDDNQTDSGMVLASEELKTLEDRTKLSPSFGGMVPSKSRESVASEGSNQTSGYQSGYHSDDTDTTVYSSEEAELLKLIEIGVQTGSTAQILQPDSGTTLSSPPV

Cn1cc(-c2nccc(Oc3ccc(NC(=O)Nc4ccc(Cl)c(C(F)(F)F)c4)cc3)c2F)cn1 [Example 1, 1-(4-chloro-3-(trifluoromethyl)phenyl)-3-(4-(3-fluoro-2-(1-methyl-4-pyrazolyl)-pyridin-4-yl-oxy)phenyl)urea]
pIC50 ([1]; Homo sapiens, MDA-MB-231, 72 hours, CCK-8): 5.55 | IC50 as fold of that of Sorafenib ([1]; MDA-MB-231 cell line): 0.28 fold | pIC50 [2]: 6.14 | pIC50 [3]: 5.15 | bioavailability (Pharmacokinetics in mice; PO 5 mg/kg vs IV 1 mg/kg, read-out: F (oral bioavailability)): 90.3% | AUC(0-t) (Pharmacokinetics in mice; PO 5 mg/kg, average of three mice, read-out: AUClast (area under the curve)): 39600 ng·h/mL | Cmax (Pharmacokinetics in mice; PO 5 mg/kg, average of three mice, read-out: Cmax (peak concentration)): 1910 ng/mL | pIC50 [4]: 5.69 | pIC50 [5]: 5.61 | pIC50 [6]: 5.31 | pIC50 [7]: 6.03 | pIC50 (VEGFR2; ATP 5 μM, 20 minutes, room temperature): 7.54 | inhibitory activity as fold of that of Comparative compound 2 (VEGFR2; VEGFR2 kinase): 6.6 fold | inhibitory activity as fold of that of Sorafenib (VEGFR2; VEGFR2 kinase): 3.13 fold | IC50 value as fold of that of Comparative compound 2 (VEGFR2; VEGFR2 kinase, ratio of IC50): 0.15 fold | IC50 value as fold of that of Sorafenib (free base) (VEGFR2; VEGFR2 kinase, ratio of IC50): 0.32 fold | pIC50 [8]: 5.56 | pIC50 [9]: 4.77
